Laboratory results: patent US20140371258A1 (priority 2010, published 2014)
Entries after “also recorded” stand apart in the source; their conditions may differ. Like-named read-outs stand apart in the source and are kept apart here.

How the values were obtained:
[1] = in vivo; conditions: mouse, iv
Method: (§1) The experiment consisted of 3 treatment groups of 36 mice per group plus an untreated group of 3 mice for a total of 39 mice on the day of treatment. […] The above ‘topotecan-equivalent’ concentrations were calculated based on the topotecan content for each compound. […] At intervals (0.5, 1, 2, 4, 8, 12, 24, 72, 120, 168, 216 hr) following drug administration, 3 animals per treatment group were sacrificed, blood collected via cardiac puncture, and tumor tissue was excised. Tumor tissue was flash frozen and stored at −80° C. until analysis. Blood was processed to obtain plasma and stabilizers added as described for PK studies in beagle dogs. Samples were frozen and stored at −80° C. until analysis.
(§2) Plasma and tumor-tissue were analyzed by LC/MS-MS for topotecan. Data was reported as ng/mL for plasma samples and ng/mg for tumor samples.

[2] = system: human NCI-H460 lung tumor; test: NCI-H460 lung tumor xenograft efficacy study; assay type: in vivo
From the text: The purpose of the study was to evaluate the antitumor efficacy of exemplary PEG topotecan conjugates along with unmodified topotecan when administered against subcutaneously (sc) implanted human NCI-H460 lung tumor xenografts in male athymic nude mice.
Six-weeks-old male athymic nude mice were purchased from Charles River (Wilmington, Mass.) and acclimated in the laboratories prior to experimentation. […] Cages were changed twice weekly.
Thirty-to-forty mg fragments of human NCI-H460 lung tumor were implanted sc in mice near the right axillary area using a 12-gauge trocar needle and allowed to grow.
On each day of injection, a 15.625 mg/mL solution of PEG-topotecan (the amount of PEG-topotecan being 31.25 times the topotecan dosage) was prepared in saline. A portion of this solution was diluted with saline to the lower concentrations. All three solutions were quite viscous. A 0.5 mg/mL solution of topotecan was prepared in saline on each day of treatment. Lower dosages were achieved by diluting this solution with saline. All dosing solutions were administered by exact body weight using an injection volume of 0.2 mL/10 g of body weight. Both PEG-topotecan and topotecan solutions were prepared in subdued light with PEG-topotecan injected within two hours of preparation and topotecan injected within 30 minutes of preparation.
The experiment consisted of six treatment groups of ten mice per group and one vehicle-treated control group also with ten mice for a total of 70 mice on the first day of treatment. Both PEG-topotecan and topotecan were administered intravenously (iv) as three injections given four days apart (q4d×3) at dosages of 10, 2.5, and 1 mg/kg/dose. The control group (group 1) was treated with the vehicle (saline), which was also administered iv q4d×3.
The study was terminated 55 days after tumor implantation. Any animal whose tumor became ulcerated or reached 4,000 mg was euthanized prior to study termination.

[3] = Maximum tolerated dose (tolerance) study, Q4D×3 iv; assay type: in vivo, female athymic NCr-nu/nu mice
[4] = humans, cited from earlier work
[5] = Single-dose MTD study; design: species or system mice; conditions: mouse, in vivo, intravenous, topotecan-equivalent
[6] = system: human NCI-H460 lung tumor; test: H460 tumor growth after a single IV administration; assay type: in vivo; conditions: single iv injection at each compound's MTD; FIG. 7
Method: Six-weeks-old female athymic nude mice were purchased from Charles River (Wilmington, Mass.) and acclimated in the laboratories prior to experimentation. […] The animals were observed daily and clinical signs were noted.
Thirty-to-forty mg fragments of human NCI-H460 lung tumor were implanted sc in mice near the right axillary area using a 12-gauge trocar needle and allowed to grow. The day of tumor implantation was designated as day −7. Tumors were allowed to reach 100-234 mg in weight (100-234 mm^3 in size) before the start of treatment. A sufficient number of mice were implanted so that tumors in a weight range as narrow as possible were selected for the trial on the day of treatment initiation (day 7 after tumor implantation). […]
The experiment consisted of 3 treatment groups of 36 mice per group plus an untreated group of 3 mice for a total of 39 mice on the day of treatment. […] The above ‘topotecan-equivalent’ concentrations were calculated based on the topotecan content for each compound. […]
The sc tumors were measured and the animals were weighed twice weekly starting with the first day of treatment. Tumor volume was determined by caliper measurements (mm) and using the formula for an ellipsoid sphere: L×W^2/2=mm^3, where L and W refer to the larger and smaller perpendicular dimensions collected at each measurement. […]

[7] = mouse, in vivo, iv
Method: as §1, §2

[8] = system: HT29 human colon tumor; test: HT29 colorectal cancer xenograft efficacy study; conditions: for Non-Specific Deaths / Regressions (100%) / Tumor Free on Day 99: 10 animals per group; for Growth Delay (T-C): based on median days to 1000 mg
From the text: Six-weeks-old female athymic NCr-nu/nu mice were purchased from Charles River Laboratories, Inc. (Wilmington, Mass.) and acclimated in the laboratories for nine days prior to experimentation. The mice were housed in microisolator cages, up to five animals per cage. Each animal in the cage was identified by an ear punch. All mice were on a 12-hour light/dark cycle and received filtered municipal water and sterilizable rodent diet (Harlan-Teklad TD8656) ad libitum. Cages were changed twice weekly. The animals were observed daily and clinical signs were noted.
Thirty-to-forty mg fragments of HT29 human colon tumor, propagated in an in vivo passage, were implanted sc on the right flank area of mice using a12-gauge trocar needle. The day of tumor implantation was designated as Day 0. […] A sufficient number of mice were implanted so that animals with tumors in a weight range as narrow as possible were selected for the trial on the day of treatment initiation (Day 14 after tumor implantation). Those animals selected with tumors in the proper size range on Day 14 were placed in several large cages and then assigned randomly to the various treatment groups.
The lower dosage was achieved by further dilution with saline. The dosing solutions were treated as light-sensitive (formulated under amber lights and dispensed into brown bottles), stored at room temperature, and administered within 2 h of formulation. […] The lower dosage was achieved by further dilution with saline. The dosing solutions were treated as light-sensitive (formulated under amber lights and dispensed into brown bottles), were stored at room temperature, and were administered within 2 h of formulation. Topotecan was prepared at a concentration of 1.0 mg/mL on each day of treatment in saline. The lower dosages were achieved by further dilutions with saline. The dosing solutions were treated as light-sensitive (formulated under amber lights and dispensed into brown bottles), were kept on ice, and were administered within 30 min of formulation. Saline was obtained from Phoenix Pharmaceutical, Inc.
The study consisted of a vehicle-treated control group and seven treatment groups with ten mice each for a total of 80 mice at the start of treatment. […] The control group was treated intravenously with saline on the same treatment schedule. All treatments were administered by exact body weight with the injection volume being 0.2 mL/10 g of body weight.
Tumors were measured (the limit of detection being 32 mg (4×4 mm)) and the animals were weighed twice weekly starting with the first day of treatment. Tumor volume was determined by caliper measurements (mm) and using the formula for an ellipsoid sphere: L×W^2/2=mm^3, where L and W refer to the larger and smaller perpendicular dimensions collected at each measurement. This formula is also used to calculate tumor weight, assuming unit density (1 mm^3=1 mg). Individual tumor and body weight measurements were collected.
Number of non-specific deaths, number of complete tumor regressions, number of tumor-free survivors on Day 99, and median number of days for the tumors in each group to reach 1,000 mg were calculated. The median time (in days) to reach 1,000 mg was used in the calculation of the overall delay in the growth of the median tumor (T-C; T=treated group; C=control group). Individual tumor weights, group median tumor weights, TIC (%) based on median tumor weights, group mean tumor weights, standard error of the mean tumor weights, the time for the individual animal's tumor to reach 1,000 mg, individual body weights, mean body weights, and the change in mean body weights relative to the mean body weight on the first day of collection (in grams and as a percent) were collected.

## CC[C@@]1(O)C(=O)OCc2c1cc1n(c2=O)Cc2cc3c(CN(C)C)c(O)ccc3nc2-1 [topotecan, (S)-10-[(dimethylamino)methyl]-4-ethyl-4,9-dihydroxy-1H-pyrano[3′,4′:6,7]indolizino[1,2-b]quinoline-3,14(4H,12H)-dione]
[1]
  concentration at 5 day: < 1000 ng/g
[2]; 1.0 mg/kg/dose
  growth delay compared with PEG-topotecan at the same dosage: significantly greater
[2]; 1.0 mg/kg/dose iv q4d×3
  deaths: without deaths
[2]; 2.5 mg/kg/dose iv q4d×3
  deaths: without deaths
[2]; 10 mg/kg/dose iv q4d×3
  deaths: one
[3]; iv Q4D×3, 5 mg/kg/inj
  maximum average body weight loss: 0%
[3]; iv Q4D×3, 10 mg/kg/inj
  maximum average body weight loss: 0%
[3]; iv Q4D×3, not more than 10% deaths, no more than 20% average body weight loss
  maximum tolerated dosage (MTD): 15 mg/kg/inj
[3]; non-tumor-bearing mice, iv Q4D×3, dosages of 15, 10, and 5 mg/kg/inj
  deaths: no deaths; also recorded: without deaths
[4]; 30 min iv
  biological half life t1/2: 2.8 hours
[5]
  MTD: 20 mg/kg
[6]
  tumor growth inhibition / delay: only minimal tumor growth delay; also recorded: delayed modestly
[7]
  detectability of topotecan in plasma: undetectable beyond 24 hr post-injection
[8]; 7.5 mg/kg/inj iv Q4Dx3(14)
  Median Days to 1000 mg: 38.5 days
  Non-Specific Deaths: 0
  Regressions (100%): 0
  Tumor Free on Day 99: 0
  Growth Delay (T-C): 4.4 days
[8]; 15 mg/kg/inj iv Q4Dx3(14)
  Median Days to 1000 mg: 46.8 days
  Non-Specific Deaths: two
  Regressions (100%): 0
  Tumor Free on Day 99: 0
  Growth Delay (T-C): 12.7 days
[8]; 15 mg/kg/inj iv Q4Dx3(14), listed as Top
  Non-Specific Deaths: 2
[8]; 20 mg/kg/inj iv Q4Dx3(14)
  Median Days to 1000 mg: 49.9 days
  Non-Specific Deaths: two
  Regressions (100%): 0
  Tumor Free on Day 99: 0
  Growth Delay (T-C): 15.8 days
[8]; 20 mg/kg/inj iv Q4Dx3(14), listed as Top
  Non-Specific Deaths: 2
[8]; dosage of 7.5 mg/kg/inj iv Q4D×3
  inhibition of growth of HT29 human colon tumor xenografts: minimally effective
[8]; dosages of 20 and 15 mg/kg/inj iv Q4D×3
  inhibition of growth of HT29 human colon tumor xenografts: effective

## camptothecin sodium
[4]; bolus iv
  biological half life t1/2: 15.3 hours
